The numbers were not newly measured in patent publication US20090318550A1, “Emulsions comprising at least one retinoid and benzoyl peroxide” (GALDERMA RESEARCH & DEVELOPMENT, priority 2006, published 2009), which cites them from elsewhere.

The conditions of series [1]: in presence of benzoyl peroxide formulation.
The conditions of series [2]: for Decomposition time: 40° C.

Read-outs that look alike come from different tables or passages of the source.

Turning to `COc1ccc(-c2ccc3cc(C(=O)O)ccc3c2)cc1C12CC3CC(CC(C3)C1)C2` [adapalene, 6-(3-(1-adamantyl)-4-methoxyphenyl)-2-naphthoic acid], the “Decomposition of the retinoid” value in series [1] (during 24 hours) was “no decomposition”.
Turning to `O=C(OOC(=O)c1ccccc1)c1ccccc1` [benzoyl peroxide], the results for the Decomposition time in series [2] (in solution in PEG 400 (0.5 mg/g)), in series [2] (in solution in ethanol) and in series [2] (in solution in propylene glycol) were 1.4 days, 29 days and 53 days, respectively. The “Decomposition in suspension (dispersed form)” value in series [2] (in water and propylene glycol, storing for 90 days) is recorded as “not decomposed”.
For the molecule `CC1=C(/C=C/C(C)=C/C=C/C(C)=C/C(=O)O)C(C)(C)CCC1` [tretinoin], the figures for the “Decomposition of the retinoid” value in series [1] (2 hours) and in series [1] (4 hours) were 50% and 95%, respectively.
